Laboratory results taken from a flash point compilation (Sun et al. 2020).

| flash point | SMILES |
| --- | --- |
| 103.00 °C | O=C1C=CC(=O)O1 [furan-2,5-dione] |
| -2.00 °C | CCC(=O)OC [methyl propanoate] |
| 52.00 °C | CCCCCCCC=O [octanal] |
| 60.00 °C | C=Cc1ccccc1C [1-ethenyl-2-methylbenzene] |
| 196.00 °C | CCCCCCCCOC(=O)CCCCC(=O)OCCCCCCCC [dioctyl hexanedioate] |
| 166.00 °C | OCC1CCC(CO)CC1 (centres undefined) [[4-(hydroxymethyl)cyclohexyl]methanol] |
| -37.00 °C | CC(C)N [propan-2-amine] |
| 207.00 °C | Cc1cn(/C=C/C=O)c(=O)[nH]c1=O [(E)-3-(5-methyl-2,4-dioxopyrimidin-1-yl)prop-2-enal] |
| 74.00 °C | COC(C)COC(C)CO (centres undefined) [2-(2-methoxypropoxy)propan-1-ol] |
| 88.00 °C | CCCCCCCCCCCCS [dodecane-1-thiol] |
| 113.00 °C | O=S1(=O)CC=CC1 [2,5-dihydrothiophene 1,1-dioxide] |
| 195.00 °C | Nc1ccc(O)cc1 [4-aminophenol] |
| 127.00 °C | NCCOCCO [2-(2-aminoethoxy)ethanol] |
| 202.00 °C | Cc1ccc(S(N)(=O)=O)cc1 [4-methylbenzenesulfonamide] |
| 96.00 °C | COC(=O)c1ccccc1O [methyl 2-hydroxybenzoate] |
| 43.00 °C | CCC(=O)CC(C)CC (centres undefined) [5-methylheptan-3-one] |
| 102.00 °C | NCCNCCO [2-(2-aminoethylamino)ethanol] |
| 67.00 °C | CC(C)(N)CO [2-amino-2-methylpropan-1-ol] |
| 224.00 °C | CC(C)CCCCCCOC(=O)C1CCCCC1C(=O)OCCCCCCC(C)C (centres undefined) [bis(7-methyloctyl) cyclohexane-1,2-dicarboxylate] |
| 50.00 °C | O=C(Nc1cccc(Cl)c1)OCC#CCCl [4-chlorobut-2-ynyl N-(3-chlorophenyl)carbamate] |
| 13.00 °C | CC(C)CC=O [3-methylbutanal] |
| -56.00 °C | C=COC [methoxyethene] |
| -9.00 °C | CC(C)CN [2-methylpropan-1-amine] |
| 149.00 °C | CCCCCCCCCCCCc1ccccc1S(=O)(=O)O [2-dodecylbenzenesulfonic acid] |
| 57.00 °C | CCOC(=O)CC(C)=O [ethyl 3-oxobutanoate] |
| -79.00 °C | C=CCC [but-1-ene] |

| flash point | SMILES |
| --- | --- |
| 185.00 °C | CCCCCCCCCCCCCCCCCCS [octadecane-1-thiol] |
| 199.00 °C | CCCNCC(O)COc1ccccc1C(=O)CCc1ccccc1 (centres undefined) |
| 41.00 °C | Cc1ccc(F)cc1 [1-fluoro-4-methylbenzene] |
| 14.00 °C | CCCOC(C)=O [propyl acetate] |
| 91.00 °C | CC1CCC(C(C)C)C(O)C1 (centres undefined) [5-methyl-2-propan-2-ylcyclohexan-1-ol] |
| 110.00 °C | CC(=O)Nc1ccc(C(=O)CCl)cc1 [N-[4-(2-chloroacetyl)phenyl]acetamide] |
| 54.00 °C | O=[N+]([O-])C(Br)=Cc1ccccc1 [(2-bromo-2-nitroethenyl)benzene] |
| 138.00 °C | COc1ccc(C(C)=O)cc1 [1-(4-methoxyphenyl)ethanone] |
| 60.00 °C | CC(C)(C)c1ccccc1 [tert-butylbenzene] |
| 50.00 °C | CC(C)=CCO [3-methylbut-2-en-1-ol] |
| 17.00 °C | CC(=O)OCC(C)C [2-methylpropyl acetate] |
| -4.00 °C | C=CCCCCC [hept-1-ene] |
| 88.00 °C | CC(=O)OC1CC2CCC1(C)C2(C)C (centres undefined) [(1,7,7-trimethyl-2-bicyclo[2.2.1]heptanyl) acetate] |
| 37.00 °C | CC(C)=CC=O [3-methylbut-2-enal] |
| 47.00 °C | CC1(C)[C@@H]2CC[C@@]1(C)C(=O)C2 [(1R,4R)-1,7,7-trimethylbicyclo[2.2.1]heptan-2-one] |
| 170.00 °C | c1ccc2n[nH]nc2c1 [2H-benzotriazole] |
| 29.00 °C | C=C1C(CCl)(CCl)C2(Cl)C(Cl)C(Cl)C1(Cl)C2(Cl)Cl (centres undefined) |
| 36.00 °C | CC(C)c1ccccc1 [cumene] |
| 162.00 °C | N#Cc1ccccc1C#N [benzene-1,2-dicarbonitrile] |
| 93.00 °C | NCCN1CCNCC1 [2-piperazin-1-ylethanamine] |
| 88.00 °C | c1ccc2ccccc2c1 [naphthalene] |
| 132.00 °C | CCCCC(CC)CNCC(CC)CCCC (centres undefined) [2-ethyl-N-(2-ethylhexyl)hexan-1-amine] |
| -108.00 °C | C=CC [prop-1-ene] |
| -135.00 °C | CC [ethane] |
| 89.00 °C | CCCCCCCCCCCCCCCCCC[Si](Cl)(Cl)Cl [trichloro(octadecyl)silane] |
| 82.00 °C | C=C(C)C(=O)OCCCCCC [hexyl 2-methylprop-2-enoate] |

| SMILES | flash point |
| --- | --- |
| C=CC(=O)O [prop-2-enoic acid] | 54.00 °C |
| CNC [N-methylmethanamine] | -7.00 °C |
| CCCCC(CC)CO (centres undefined) [2-ethylhexan-1-ol] | 81.00 °C |
| CCCCCOC(=O)c1ccccc1C(=O)OCCCCC [dipentyl benzene-1,2-dicarboxylate] | 181.00 °C |
| COc1ccc(O)c(C(C)(C)C)c1.COc1ccc(O)cc1C(C)(C)C [2-tert-butyl-4-methoxyphenol;3-tert-butyl-4-methoxyphenol] | 113.00 °C |
| Oc1ccc(Cl)cc1Cl [2,4-dichlorophenol] | 114.00 °C |
| C1CO1 [oxirane] | -18.00 °C |
| ClC=CCl [1,2-dichloroethene] | 4.00 °C |
| CC(=O)OOC(C)=O [acetyl ethaneperoxoate] | 45.00 °C |
| c1ccc2c(c1)Nc1ccccc1S2 [10H-phenothiazine] | 202.00 °C |
| C=C(C)CCl [3-chloro-2-methylprop-1-ene] | -13.00 °C |
| CCCCS [butane-1-thiol] | 13.00 °C |
| ClCC1CO1 (centres undefined) [2-(chloromethyl)oxirane] | 34.00 °C |
| COS(C)(=O)=O [methyl methanesulfonate] | 104.00 °C |
| OCCBr [2-bromoethanol] | 41.00 °C |
| CC(C)(C)c1ccc(O)cc1 [4-tert-butylphenol] | 113.00 °C |
| O=[N+]([O-])c1ccc(Cl)cc1 [1-chloro-4-nitrobenzene] | 110.00 °C |
| CCOc1ccc(N)cc1 [4-ethoxyaniline] | 116.00 °C |
| Brc1ccc(-c2ccccc2)cc1 [1-bromo-4-phenylbenzene] | 143.00 °C |
| C=CC(=O)OCC(CC)CCCC (centres undefined) [2-ethylhexyl prop-2-enoate] | 82.00 °C |
| CCCCOP(=O)(O)OCCCC [dibutyl hydrogen phosphate] | 188.00 °C |
| O=[N+]([O-])c1ccc(Nc2ccccc2)cc1 [4-nitro-N-phenylaniline] | 190.00 °C |
